Data on one compound can be found in patent US20230284994A1, “PET-CT IMAGING METHODS, CONTRAST AGENTS AND PHARMACEUTICAL COMPOSITIONS FOR USE IN SAID IMAGING METHODS” (ADIPOSS SÁRL, priority 2020, published 2023).

One assay has as its system brown adipose tissue. The experiment in a line: 18FDG PET-CT scan for brown adipose tissue in syngeneic B16F10 melanoma mouse model, confirmed by necropsy. The assay is classed as in vivo, C57B1/6 mice. As to conditions: 12 scans (six with, six without contrast agent); based on 18FDG uptake or on uptake of PET-CT contrast agent. The protocol:
Syngeneic mouse melanoma model (with tumor metastases dissemination to the lungs) was induced by intravenous injection of B16F10 murine melanoma cancer cells in C57B1/6 mice. 19 days after cells injection, the animals were administered with ^18FDG and a PET-CT scan was performed on each animal. One day later, the PET-CT contrast agent was administered via oral route to the same animals. Then, a second ^18FDG PET-CT scan was performed. In total, 12 ^18FDG PET-CT scans were performed (six with and six without the PET-CT contrast agent). The animals were then euthanized and necropsy was performed. Assessment of the PET-CT scans for absence of ^18FDG uptake but presence of contrast enhancement due to the PET-CT contrast agent allowed easy and robust detection of brown adipose tissue, increasing the sensitivity and positive predictive value of the PET-CT scan or BAT. In total, ^18FDG uptake in BAT was present in nine out of 12 PET-CT scans. However, all mice had BAT. Based on ^18FDG uptake, the sensitivity of the PET-CT scan for BAT was 75% (FIG. 5). Based on the uptake of the PET-CT contrast agent, the sensitivity for BAT was 100%. Using the PET-CT contrast agent, the sensitivity of the PET-CT scan for BAT in mice was thus improved by 25%.

The subject of the next assay is tumour metastases. The experiment in a line: 18FDG PET-CT scan for metastases in syngeneic B16F10 melanoma mouse model, necropsy as standard of truth. The assay is classed as in vivo, C57B1/6 mice. The conditions noted are these: six mice, 24 metastases by necropsy; scan without (18FDG only) or with oral PET-CT contrast agent. The protocol: Syngeneic mouse melanoma model (with tumor metastases dissemination to the lungs) was induced by intravenous injection of B16F10 murine melanoma cancer cells in C57B1/6 mice. 19 days after cells injection, the animals were administered with ^18FDG and a PET-CT scan was performed on each animal. One day later, the PET-CT contrast agent was administered via oral route to the same animals. Then, a second ^18FDG PET-CT scan was performed. The animals were then euthanized and necropsy was performed on each animal. Assessment of the PET-CT scans for co-localization of positive contrast enhancement of ^18FDG and PET-CT contrast agent allowed discriminating metastases from brown adipose tissue (FIGS. 2a and 3a). The ^18FDG signals present in BAT, that could be interpreted as false positives (metastases), were correctly attributed to BAT, improving the specificity and positive predictive value of the PET-CT scan for tumour metastases. This was confirmed by necropsy (FIGS. 2b, c and 3b, c). In total, based on necropsy (standard of truth), the six mice presented 24 metastases (four per mouse on average). […] Without the PET-CT contrast agent, the positive predictive value PPV of the ^18FDG PET-CT scan for metastases was 85% (FIG. 4). By using the PET-CT contrast agent, the PPV was 100%. The CT contrast agent thus improves the PPV of the ^18FDG PET-CT scan by 15%.

Consider `O=C[C@H]([18F])[C@@H](O)[C@H](O)[C@H](O)CO` [^18FDG, 2-[fluorine-18]fluoro-2-deoxy-D-glucose], for which the “sensitivity of the 18FDG PET-CT scan for BAT” value in the assay on brown adipose tissue was determined as 75%. For the same compound, in the assay with tumour metastases, the “positive predictive value PPV of the 18FDG PET-CT scan for metastases” value is on record as 85%.
